The source of these data is paper PMC11423509, “Structural basis of Pseudomonas aeruginosa penicillin binding protein 3 inhibition by the siderophore-antibiotic cefiderocol” (Chemical Science, 2024).

The target in test [1] is T1, P. aeruginosa PBP3 (Pseudomonas aeruginosa, UniProt G3XD46).
T1 construct: A gene encoding ftsI (PBP3, residues 50–579) from P. aeruginosa PAO1; made in house; host or cells: E. coli BL21(DE3)
As to the kind of experiment: Meropenem competition binding experiment, PBP3-observed mass spectrometry. Conditions: 1 : 1 mixture of cephalosporin and meropenem (1 mM of each), 100 μM PBP3, 10 minutes co-incubation, quenched with formic acid. The method, then:
To further probe the relative rates of reaction of the four β-lactams with PBP3, a competitive binding experiment employing PBP3-observed mass spectrometry (MS) was developed. […] Following 10 minutes co-incubation with PBP3, the reactions were quenched with formic acid and analysed by protein-observed MS (under denaturing conditions) (Fig. 1).
The spectra shown are representative of three technical repeats.
Samples were then diluted in LC-MS-grade water (15 μM final concentration) and analysed using a Waters XeVo G2-S mass spectrometer coupled to a Waters Acquity-UPLC. 5 μL samples were injected onto a ThermoFisher Scientific ProSwift RP-4H (1 mm × 50 mm) column pre-equilibrated in 95%v/v water, 5%v/v MeCN. The column was eluted with a linear gradient from 5 to 95v/v% MeCN in water over ten minutes. All solvents contained 0.1%v/v formic acid. Data were analysed using MassLynx Version 4.1. The mass spectra obtained were deconvoluted using the MaxEnt1 algorithm.

Test [2] has as its target T1, P. aeruginosa PBP3. As to the kind of experiment: biochemical. The class given is binding. Conditions: 311 nM PBP3, 30 nM Bocillin-FL; 10 min pre-incubation at 30 °C; mean ± standard error of three independent experiments; read-out: pIC50 (bocillin, n = 3) (converted). An excerpt: (§1) PBP3 transpeptidases are proposed to be key targets for the cephalosporins and most other β-lactam antibiotics.[13] […] In one method, the thioester substrate analogue S2d is hydrolysed by PBP3 (ESI Scheme S1 ^†) releasing D-alanine and a free thiol.[15,16] The latter reacts with monobromobimane (mBBr), a fluorescent dye, enabling measurement of the turnover rate and determination of pIC50 values.
A positive control without inhibitor and a negative control lacking both enzyme and inhibitor were prepared. In both cases the inhibitor/enzyme solution was replaced with an equal volume of buffer. Following incubation of the inhibitor with PBP3, Bocillin-FL (30 nM) was dispensed to initiate the reaction. Following a further incubation (10 min, 30 °C, 300 rpm) the fluorescence polarisation was measured using a BMG PHERAstar Microplate Reader (λEx/λEm = 480/520 nm) using black 384-well microplates (Greiner). The percentage inhibition of Bocillin-FL binding was calculated for each compound concentration by normalising with control wells. These measurements were used to calculate relative pIC50 values using the log([inhibitor]) against normalised response, fit, using GraphPad Prism version 10.2 (ESI Fig. S7 ^†).
Figure S7: Dose response curves for (A) cefiderocol, (B) ceftazidime, (C) cefepime and […]
assays were carried out with 311 nM PBP3 and 30 nM Bocillin-FL, with 10 minute pre-incubation with inhibitor compounds in 50 mM potassium phosphate, pH 7.4. […]
(§2) independent repeats are shown. Error bars represent standard deviations from three technical replicates measured simultaneously. Average pIC50 values and inhibitor structures are provided […]
(§3) (1 picture or pasted object on this page, not shown here)

The target of test [3] is T1, P. aeruginosa PBP3. As to the kind of experiment: biochemical. The conditions noted are these: 300 nM PBP3, 1.5 mM S2d, 0.5 mM mBBr; 10 min pre-incubation at 30 °C; mean ± standard error of three independent experiments; read-out: pIC50 (S2d, n = 3) (converted).
Description: as §1
A positive control without inhibitor and a negative control lacking both enzyme and inhibitor were prepared. […]
as §2, §3

Another test relates to PBP3. Also noted: method as in earlier work. The conditions noted are these: Bocillin-FL assay under different conditions; ref 20 (Shapiro et al.); cited from earlier work.

Structures are written as SMILES. Where two headings read alike, the source gives them in different places.

T1 sequence (G3XD46 50-579): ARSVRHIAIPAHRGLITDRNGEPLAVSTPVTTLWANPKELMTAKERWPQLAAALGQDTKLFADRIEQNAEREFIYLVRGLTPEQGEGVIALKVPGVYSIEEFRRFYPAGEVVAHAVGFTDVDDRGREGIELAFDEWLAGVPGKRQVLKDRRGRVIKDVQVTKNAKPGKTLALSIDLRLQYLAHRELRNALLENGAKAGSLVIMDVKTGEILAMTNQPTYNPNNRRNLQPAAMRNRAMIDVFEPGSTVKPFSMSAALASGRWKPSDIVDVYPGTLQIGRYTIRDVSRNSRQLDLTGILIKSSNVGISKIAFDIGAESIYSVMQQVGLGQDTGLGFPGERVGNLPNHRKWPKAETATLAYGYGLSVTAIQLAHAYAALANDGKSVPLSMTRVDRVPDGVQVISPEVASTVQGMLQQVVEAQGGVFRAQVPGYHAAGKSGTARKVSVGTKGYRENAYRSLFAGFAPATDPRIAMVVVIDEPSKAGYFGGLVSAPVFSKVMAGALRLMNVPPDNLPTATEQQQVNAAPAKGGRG

Regarding `CO/N=C(\C(=O)N[C@@H]1C(=O)N2C(C(=O)[O-])=C(C[N+]3(C)CCCC3)CS[C@H]12)c1csc(N)n1` [Cefepime, cefepime], the “PBP3 complex formed in competition with meropenem (protein-observed MS)” value (“PBP3 complex formed in competition” below) on P. aeruginosa PBP3 [1] was “∼1 : 1 mixture of cefepime and meropenem modified PBP”. Besides, the IC50 on P. aeruginosa PBP3 [2] is 100 nM; on P. aeruginosa PBP3 [3], 39.8 nM.

As to `CC(C)(O/N=C(\C(=O)N[C@@H]1C(=O)N2C(C(=O)[O-])=C(C[N+]3(CCNC(=O)c4ccc(O)c(O)c4Cl)CCCC3)CS[C@H]12)c1csc(N)n1)C(=O)O` [Cefiderocol, cefiderocol], the “PBP3 complex formed in competition” value on P. aeruginosa PBP3 [1] is on record as “a small amount of cefiderocol modified PBP3 was observed”. The IC50 was 100 nM on P. aeruginosa PBP3 [2] and 50.1 nM on P. aeruginosa PBP3 [3].

Turning to `CC(C)(O/N=C(\C(=O)N[C@@H]1C(=O)N2C(C(=O)[O-])=C(C[n+]3ccccc3)CS[C@H]12)c1csc(N)n1)C(=O)O` [Ceftazidime, ceftazidime], the “PBP3 complex formed in competition” value at P. aeruginosa PBP3 [1] is recorded as “exclusively meropenem-modified PBP3”. Also, the IC50 on P. aeruginosa PBP3 [2] is 251 nM; at P. aeruginosa PBP3 [3], 79.4 nM. Moreover, the “PBP3 inhibition relative to meropenem” value in the test with PBP3 is recorded as “more inhibition with ceftazidime than meropenem”.
